Test results taken from patent US7531545B2, “2-amino-3,4-dihydro-pyrido[3,4-d]pyrimidine derivatives useful as inhibitors of β-secretase (BACE)” (Janssen Pharmaceutica, N.V., priority 2005, dated 2009).

Target: human BACE-1 (Homo sapiens, UniProt P56817)
Experiment: CEREP BACE Inhibition Assay
Assay type: biochemical
Details: recombinant enzyme; for inhibition at 1 µM: read-out: % Inhibition @ 1.0 μM; for IC50: read-out: IC50
Method: More specifically the assay, run at 50 μL in a 96 well plate, evaluated the effect of test compound on the activity of the human BACE-1 quantified by measuring the formation of Mca-S-E-V-N-L-NH2 from […], using a recombinant enzyme. The test compound, reference compound or water (control) were added to a buffer containing 0.09 M sodium acetate (pH 4.5) and 0.25 μg BACE-1. Compound interference with the fluorimetric detection method due to autofluorescence was then checked by measurements at the wavelengths defined to evaluate the enzyme activity. […] For control basal measurement, the substrate was omitted from the reaction mixture. […] The standard inhibitory reference compound was OM99-2, which was tested in each experiment at several concentrations to obtain an inhibition curve from which its IC50 value was calculated.

[1] = percent inhibition of the control activity

Chain of human BACE-1 (P56817 46-501): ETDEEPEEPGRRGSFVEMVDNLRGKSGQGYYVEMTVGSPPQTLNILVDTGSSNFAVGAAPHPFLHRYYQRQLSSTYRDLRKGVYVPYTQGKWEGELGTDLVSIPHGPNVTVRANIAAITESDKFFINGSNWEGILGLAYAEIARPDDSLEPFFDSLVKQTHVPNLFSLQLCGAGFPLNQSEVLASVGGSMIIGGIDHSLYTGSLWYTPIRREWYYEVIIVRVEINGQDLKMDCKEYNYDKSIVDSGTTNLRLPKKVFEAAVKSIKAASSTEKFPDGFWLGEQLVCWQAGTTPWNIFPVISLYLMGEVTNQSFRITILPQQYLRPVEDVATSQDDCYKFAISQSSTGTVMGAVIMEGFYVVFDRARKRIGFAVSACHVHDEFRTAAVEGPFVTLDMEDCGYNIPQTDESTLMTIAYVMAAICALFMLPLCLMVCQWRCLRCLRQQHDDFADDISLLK

Compound	inhibition at 1 µM [1] [%]	IC50 [nM]	inhibition at 0.3 µM [1] [%]	% Inhibition @ 1.0 μM [1] [%]	inhibition at 10 µM (10.0 μM, percent inhibition of the control activity) [%]
C[C@@H](O)[C@H](CCC(=O)N(C)C1CCCCC1)N1Cc2cc(Oc3ccccc3)ncc2N=C1N [Compound 177]	80	320	–	–	–
CC(C)(C)OCCN(Cc1ccsc1)C(=O)CC[C@@H](C1CCCCC1)N1Cc2cc(Oc3ccccc3)ncc2N=C1N [Compound 156]	102	100	–	–	–
CC(C)[C@H](CCC(=O)N[C@H](C)CO)N1Cc2cc(Oc3ccccc3)ncc2N=C1N [Compound 175]	93	97	–	–	–
C[C@@H](O)[C@H](CCC(=O)NCC(C)(C)C)N1Cc2cc(Oc3ccccc3)ncc2N=C1N [Compound 186, 4-(S)-(2-Amino-6-phenoxy-4H-pyrido[3,4-d]pyrimidin-3-yl)-5-(R)-hydroxy-hexanoic acid (2,2-dimethyl-propyl)-amide]	81	190	–	–	–
COC(=O)[C@H](COC(C)(C)C)NC(=O)CC[C@@H](C1CCCCC1)N1Cc2cc(Oc3ccccc3)ncc2N=C1N [Compound 61]	–	240	81	–	–
Cc1nc([C@H](COC(C)(C)C)NC(=O)CC[C@@H](C2CCCCC2)N2Cc3cc(Oc4ccccc4)ncc3N=C2N)no1 [Compound 110]	90	62	–	–	–
CC(C)(CO)CNC(=O)CC[C@@H](C1CCCCC1)N1Cc2cc(Oc3ccccc3)ncc2N=C1N [Compound 179]	100	81	–	–	–
NC1=Nc2cnc(Oc3ccccc3)cc2CN1[C@@H](Cn1cc(C2CCCCC2)nn1)C1CCCCC1 [Compound 151]	98	150	–	–	–
CC(C)(C)OC[C@@H](NC(=O)CC[C@@H](C1CCCCC1)N1Cc2cc(Oc3ccccc3)ncc2N=C1N)C(=O)N[C@@H](CCC(=O)O)C(=O)O [Compound 224]	100	82	–	–	–
CC(C)CN(CCN1CCOCC1)C(=O)CC[C@@H](C1CCCCC1)N1Cc2cc(Oc3ccccc3)ncc2N=C1N [Compound 189]	99	140	–	–	–
CC(C)(C)CCN(CCN1CCOCC1)C(=O)CC[C@@H](C1CCCCC1)N1Cc2cc(Oc3ccccc3)ncc2N=C1N [Compound 174]	100	86	–	–	–
COC(=O)[C@H](COC(C)(C)C)N(C)C(=O)CC[C@@H](C1CCCCC1)N1Cc2cc(Oc3ccccc3)ncc2N=C1N [Compound 65]	–	110	91	–	–
C[C@H](CO)N(C)CCC[C@@H](C1CCCCC1)N1Cc2cc(Oc3ccccc3)ncc2N=C1N [Compound 184]	45	2300	–	–	–
CC(C)(C)OCCN(Cc1ccccn1)C(=O)CC[C@@H](C1CCCCC1)N1Cc2cc(Oc3ccccc3)ncc2N=C1N [Compound 155]	100	84	–	–	–
CC(C)CNC(=O)CC[C@@H](C1CCCCC1)N1Cc2cc(Oc3ccccc3)ncc2N=C1N [Compound 208]	98	130	–	–	–
CC(C)[C@H](COCC1CC(C(C)(C)C)=NO1)N1Cc2cc(Oc3ccccc3)ncc2N=C1N (stereo partly shown) [Compound 236, 3-[1-(3-tert-Butyl-4,5-dihydro-isoxazol-5-ylmethoxymethyl)-2-methyl-propyl]-6-phenoxy-3,4-dihydro-pyrido[3,4-d]pyrimidin-2-ylamine]	92	180	–	–	–
COC(=O)[C@H](COC(C)(C)C)NC(=O)CC[C@@H](C(C)C)N1Cc2cc(Oc3ccccc3)ncc2N=C1N [Compound 69]	–	340	57	–	–
COC(=O)[C@@H](COC(C)(C)C)NC(=O)CC[C@@H](C1CCCCC1)N1Cc2cc(Oc3ccccc3)ncc2N=C1N [Compound 63, 2-[4-(2-Amino-6-phenoxy-4H-pyrido[3,4-d]pyrimidin-3-yl)-4-(S)-cyclohexyl-butyryl-(R)-amino]-3-tert-butoxy-propionic acid methyl ester]	–	190	94	–	–
COC(=O)[C@@H](COCc1ccccc1)NC(=O)CC[C@@H](C(C)C)N1Cc2cc(Oc3ccccc3)ncc2N=C1N [Compound 53]	–	140	95	–	–
Cn1ccnc1CN(C(=O)CC[C@@H](C1CCCCC1)N1Cc2cc(Oc3ccccc3)ncc2N=C1N)C1CCCCC1 [Compound 83]	99	90	–	–	–
CC(C)(C)OCCN(Cc1ccccn1)C(=O)CC[C@@H](C1CCCCC1)N1Cc2cc(Oc3ccccc3)ncc2N=C1N [Compound 162]	–	90	–	99	–

Compound	inhibition at 1 µM [1] [%]	IC50 [nM]	inhibition at 0.3 µM [1] [%]	% Inhibition @ 1.0 μM [1] [%]	inhibition at 10 µM (10.0 μM, percent inhibition of the control activity) [%]
NC1=Nc2cnc(Oc3ccccc3)cc2CN1[C@@H](CCC(=O)N(CCOCCOCCOCCO)C1CCCCC1)C1CCCCC1 [Compound 176, 4-(2-Amino-6-phenoxy-4H-pyrido[3,4-d]pyrimidin-3-yl)-4-(S),N-dicyclohexyl-N-(2-{2-[2-(2-hydroxy-ethoxy)-ethoxy]-ethoxy}-ethyl)-butyramide]	101	140	–	–	–
NC1=Nc2cnc(Oc3ccccc3)cc2CN1[C@@H](CCC(=O)N(Cc1ncc[nH]1)C1CCCCC1)C1CCCCC1 [Compound 78, 4-(2-Amino-6-phenoxy-4H-pyrido[3,4-d]pyrimidin-3-yl)-4-(S),N-dicyclohexyl-N-(1H-imidazol-2-ylmethyl)-butyramide]	–	190	91	–	–
CC(C)(CO)NC(=O)CC[C@@H](C1CCCCC1)N1Cc2cc(Oc3ccccc3)ncc2N=C1N [Compound 180]	99	91	–	–	–
CC(C)(C)c1cn(C[C@@H](C2CCCCC2)N2Cc3cc(Oc4ccccc4)ncc3N=C2NN)nn1 [Compound 245, {3-[2-(4-tert-Butyl-[1,2,3]triazol-1-yl)-1-(R)-cyclohexyl-ethyl]-6-phenoxy-3,4-dihydro-pyrido[3,4-d]pyrimidin-2-yl}-hydrazine]	–	–	–	–	29
NC1=Nc2cnc(Oc3ccccc3)cc2CN1[C@@H](CCC(=O)NC[C@H]1CCCO1)C1CCCCC1 [Compound 210]	98	120	–	–	–
C[C@@H](CO)N(CCC(C)(C)C)C(=O)CC[C@@H](C1CCCCC1)N1Cc2cc(Oc3ccccc3)ncc2N=C1N [Compound 139]	94	200	–	–	–
CC(C)(C)OCCNC(=O)CC[C@@H](C1CCCCC1)N1Cc2cc(Oc3ccccc3)ncc2N=C1N [Compound 181]	96	85	–	–	–
CC(C)(C)OCCN(Cc1cncs1)C(=O)CC[C@@H](C1CCCCC1)N1Cc2cc(Oc3ccccc3)ncc2N=C1N [Compound 159]	102	110	–	–	–
CC(C)[C@H](CCC(=O)N[C@@H](COC(C)(C)C)c1nnn[nH]1)N1Cc2cc(Oc3ccccc3)ncc2N=C1N [Compound 97, 4-(2-Amino-6-phenoxy-4H-pyrido[3,4-d]pyrimidin-3-yl)-5-methyl-(S)-hexanoic acid [2-(R)-tert-butoxy-1-(1H-tetrazol-5-yl)-ethyl]-amide]	–	110	96	–	–
NC1=Nc2cnc(Oc3ccccc3)cc2CN1[C@@H](CCC(=O)N(Cc1nnn[nH]1)C1CCCCC1)C1CCCCC1 [Compound 77, 4-(2-Amino-6-phenoxy-4H-pyrido[3,4-d]pyrimidin-3-yl)-4-(S)—N-dicyclohexyl-N-(1H-tetrazol-5-ylmethyl)-butyramide]	–	330	78	–	–
CN(C(=O)CCCN1Cc2cc(Oc3ccccc3)ncc2N=C1N)C1CCCCC1 [Compound 196, 4-(2-Amino-6-phenoxy-4H-pyrido[3,4-d]pyrimidin-3-yl)-N-cyclohexyl-N-methyl-butyramide]	34	–	–	–	–
CC(C)(C)OC[C@@H](NC(=O)CC[C@@H](C1CCCCC1)N1Cc2cc(Oc3ccccc3)ncc2N=C1N)C(=O)N1CCOCC1 [Compound 103, 4-(2-Amino-6-phenoxy-4H-pyrido[3,4-d]pyrimidin-3-yl)-N-(1-(R)-tert-butoxymethyl-2-morpholin-4-yl-2-oxo-ethyl)-4-(S)-cyclohexyl-butyramide]	–	82	96	–	–
C[C@H](CO)N(CCC(C)(C)C)C(=O)CC[C@@H](C1CCCCC1)N1Cc2cc(Oc3ccccc3)ncc2N=C1N [Compound 138]	8	310	–	–	–
CC(C)(C)OC(=O)N1CCC(NC(=O)CC[C@@H](C2CCCCC2)N2Cc3cc(Oc4ccccc4)ncc3N=C2N)CC1 [Compound 150]	95	170	–	–	–
CC(C)(C)OC[C@H](NC(=O)CC[C@@H](C1CCCCC1)N1Cc2cc(Oc3ccccc3)ncc2N=C1N)C(=O)O [Compound 62]	–	250	65	–	–
NC1=Nc2cnc(Oc3ccccc3)cc2CN1[C@@H](CCCNCC1CC1)C1CCCCC1 [Compound 213]	88	240	–	–	–
CCOCCCNC(=O)CC[C@@H](C1CCCCC1)N1Cc2cc(Oc3ccccc3)ncc2N=C1N [Compound 173]	92	130	–	–	–
CC(C)(C)OC[C@H](CN)NC(=O)CC[C@@H](C1CCCCC1)N1Cc2cc(Oc3ccccc3)ncc2N=C1N [Compound 168, N-(2-Amino-1-tert-butoxymethyl-ethyl)-4-(2-amino-6-phenoxy-4H-pyrido[3,4-d]pyrimidin-3-yl)-4-cyclohexyl-butyramide]	101	–	–	–	–
CC(C)OC(=O)[C@@H](COC(C)(C)C)NC(=O)CC[C@@H](C1CCCCC1)N1Cc2cc(Oc3ccccc3)ncc2N=C1N [Compound 140, 2-[4-(2-Amino-6-phenoxy-4H-pyrido[3,4-d]pyrimidin-3-yl)-4-cyclohexyl-butyrylamino]-3-tert-butoxy-propionic acid isopropyl ester]	98	150	–	–	–
CC(C)(C)CNC(=O)CC[C@@H](C1CCCCC1)N1Cc2cc(Oc3ccccc3)ncc2N=C1N [Compound 160]	–	66	–	101	–
